Source: US20250154138A1, “Small Molecule IL-17A Modulators” (BeiGene, Ltd., priority 2022, published 2025)
Where two headings read alike, the source gives them in different places. Values belong to the compound of their own block, whether it stands above or below them.

Tests used:
[1] = system: IL-17-induced GROα secretion from HT-29 cells; experiment: GROα release assay in human colorectal adenocarcinoma epithelial cell (HT-29, ELISA); format: cell-based; conditions: 10 ng/mL IL-17A, highest concentration 10 μM, read-out: Cellular assay HT29 cell/CXCL1 IC50
Method: The purpose of the assay is to test the ability of a compound to neutralize IL17A proteins. IL17 can stimulate human epithelial cells to secrete GROα. The ability of one compound of the invention to neutralize IL-17-induced GROα secretion from the human colorectal adenocarcinoma epithelia cell line HT-29 is tested in this assay.
HT-29 cells (human colorectal adenocarcinoma epithelia cell, ATCC) were stimulated with IL-17A (Novoprotein, #C774) in final concentration of 10 ng/mL. The resultant GROα response was measured using an ELISA kit from Invitrogen (#88-52122). HT-29 cells were cultured in complete medium (McCoy's 5A medium+10% FBS) and maintained in a tissue culture flask using standard techniques. On day 1, detached the cell by using TrypLE (Gibco, #12605036) and used the complete medium to neutralize. The cells were centrifuged at 11,00 rmp for 4 minutes. Re-suspended the cell pellet in complete medium and seeded 50,000 HT-29 cells into the 96-well assay plate (Corning, 3599) at 135 μL complete medium per well. The cells were incubated for overnight, at 37° C./5% CO2 to adherent the plate. On day 2, prepared a 4-fold serial dilution of the tested compound in DMSO. The highest concentration of the compound was 10 μM. Transferred 2 μL of the serial diluted compound from the serial dilution plate into the reagent plate which was contained 198 μL complete medium with 100 ng/mL IL-17A per well. The compounds were incubated with the IL-17A for 15 minutes. 15 μL mixtures from reagent plate were transferred into the cell assay plate. Incubated the plate at 37° C./5% CO2 for 48 hours. After the incubation, on day 4, GROα level were measured with GROα ELISA as the manufacturer's instructions. 50 μL supernatant was collected form the assay plate to ELISA plate. ELISA plate was read at 450 nm on a microplate reader and compared to a standard calibration curve.
Data were processed using GraphPad Prism. GROα concentration was calculated from the standard curve. IC50 was determined using the equation log concentration (inhibitor) against response and fitted to four parameters.

[2] = target: human IL-17A / human IL-17RA (Homo sapiens (Human), UniProt Q16552); experiment: Human IL-17A biochemical assay (HTRF, blocking of IL-17A binding to IL-17RA); conditions: 0.4 nM IL-17A, 0.3 nM IL-17RA, max compound concentration 10 uM
Method: Compounds disclosed herein were tested for blocking of human IL-17A (Cat: C774, novoprotein) protein with its receptor human IL-17RA (Cat: C153, novoprotein) in an assay based on Homogeneous Time Resolved Fluorescence. 0.4 nM recombinant human IL-17A protein was pre-incubated with a serial dilution of compounds disclosed herein (maximum concentration is 10 uM, 2.7-fold serially diluted, 10 points) at room temperature for 3 hours in an assay buffer containing 20 mM HEPES, pH 7.5, 50 mM NaCl, 0.1% BSA, 0.2 mM DTT, 0.005% Tween 20. Then 0.3 nM recombinant human IL-17RA was added to plate and further incubated at room temperature for 1 hour. After that Mab Anti-6His Tb cryptate Gold (Cat: 61HI2TLB, Cisbio Bioassays) and MAb Anti Human IgG-XL665 (Cat: 61HFCXLB, Cisbio Bioassays) were added to plate and further incubated at room temperature for 1 hour. The HTRF signals (ex337 nm, em620 nm/665 nm) were read on BMG PHERAstar FSX instrument. The inhibition percentage of human IL-17A interaction with its receptor human IL-17RA in presence of increasing concentrations of compounds was calculated based on the ratio of […]. The IC50 for each compound was derived from fitting the data to the four-parameter logistic equation by Dotmatics.

Chain of human IL-17A / human IL-17RA (Q16552 24-155): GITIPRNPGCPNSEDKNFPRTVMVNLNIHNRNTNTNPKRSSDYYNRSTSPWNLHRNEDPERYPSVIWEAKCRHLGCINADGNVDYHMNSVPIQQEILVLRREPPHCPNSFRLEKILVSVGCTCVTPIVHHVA

Compound: CC(C)[C@@H]1CN(C2(C(=O)NC(CO)C3CCC3)Cc3ccc(NC(=O)[C@@H](NC(=O)c4ccnn4C)C4CCCCC4)cc3C2)C(=O)N1 (stereo partly drawn) [Example 86, N-((1S)-2-((2-((1-cyclobutyl-2-hydroxyethyl)carbamoyl)-2-((R)-4-isopropyl-2-oxoimidazolidin-1-yl)-2,3-dihydro-1H-inden-5-yl)amino)-1-cyclohexyl-2-oxoethyl)-1-methyl-1H-pyrazole-5-carboxamide]
IC50 ([1]; Homo sapiens, HT-29, 48 h): 23.5 nM
IC50 [2]: 22 nM

Compound: CCC1CNC(=O)N(C2(C(=O)NC)Cc3ccc(NC(=O)[C@@H](NC(=O)c4ccnn4C)C4CCCCC4)cc3C2)C1 (stereo partly drawn) [Example 75, N-((1S)-1-cyclohexyl-2-((2-(5-ethyl-2-oxotetrahydropyrimidin-1(2H)-yl)-2-(methylcarbamoyl)-2,3-dihydro-1H-inden-5-yl)amino)-2-oxoethyl)-1-methyl-1H-pyrazole-5-carboxamide]
IC50 ([1]; Homo sapiens, HT-29, 48 h): 186 nM
IC50 [2]: 33 nM

Compound: CNC(=O)C1(N2C[C@@H](C(C)C)NC2=O)Cc2ccc(NC(=O)[C@@H](NC(=O)c3ccnn3C3CC3)C3CCCCC3)cc2C1 (stereo partly drawn) [Example 129, N-((1S)-1-cyclohexyl-2-((2-((R)-4-isopropyl-2-oxoimidazolidin-1-yl)-2-(methylcarbamoyl)-2,3-dihydro-1H-inden-5-yl)amino)-2-oxoethyl)-1-cyclopropyl-1H-pyrazole-5-carboxamide]
IC50 ([1]; Homo sapiens, HT-29, 48 h): 119 nM
IC50 [2]: 44 nM

Compound: [2H]C([2H])([2H])NC(=O)C1(N2C[C@@H](C(C)C)NC2=O)Cc2ccc(NC(=O)[C@@H](NC(=O)c3ccnn3C)C3CCCCCC3)cc2C1 (stereo partly drawn) [Example 82, N-((1S)-1-cycloheptyl-2-((2-((R)-4-isopropyl-2-oxoimidazolidin-1-yl)-2-((methyl-d3)carbamoyl)-2,3-dihydro-1H-inden-5-yl)amino)-2-oxoethyl)-1-methyl-1H-pyrazole-5-carboxamide]
IC50 ([1]; Homo sapiens, HT-29, 48 h): 156 nM
IC50 [2]: 32 nM

Compound: CNC(=O)C1(N2C[C@@H](C(C)C)NC2=O)Cc2ccc(NC(=O)[C@@H](NC(=O)Oc3ccccc3)C3CCCCC3)cc2C1 (stereo partly drawn) [Example 51, phenyl ((1S)-1-cyclohexyl-2-((2-((R)-4-isopropyl-2-oxoimidazolidin-1-yl)-2-(methylcarbamoyl)-2,3-dihydro-1H-inden-5-yl)amino)-2-oxoethyl)carbamate]
IC50 ([1]; Homo sapiens, 48 hours): 2050 nM
IC50 [2]: 686 nM

Compound: CNC(=O)C1(N2C[C@@H](Cc3ccc(F)cc3)NC2=O)Cc2ccc(NC(=O)[C@@H](NC(=O)c3ccnn3C)C3CCCCC3)cc2C1 (stereo partly drawn) [Example 76, N-((1S)-1-cyclohexyl-2-((2-((R)-4-(4-fluorobenzyl)-2-oxoimidazolidin-1-yl)-2-(methylcarbamoyl)-2,3-dihydro-1H-inden-5-yl)amino)-2-oxoethyl)-1-methyl-1H-pyrazole-5-carboxamide]
IC50 ([1]; Homo sapiens, HT-29, 48 h): 736 nM
IC50 [2]: 90 nM

Compound: CNC(=O)C1(N2C[C@@H](C(C)C)NC2=O)Cc2ccc(NC(=O)[C@H](Cc3ccc(Cl)cc3)NC(=O)c3ccnn3C)cc2C1 (stereo partly drawn) [Example 204, N-((2S)-3-(4-chlorophenyl)-1-((2-((R)-4-isopropyl-2-oxoimidazolidin-1-yl)-2-(methylcarbamoyl)-2,3-dihydro-1H-inden-5-yl)amino)-1-oxopropan-2-yl)-1-methyl-1H-pyrazole-5-carboxamide]
IC50 ([1]; Homo sapiens, HT-29, 48 h): 2240 nM
IC50 [2]: 406 nM

Compound: CNC(=O)C1(N2C[C@@H](C(C)C)NC2=O)Cc2ccc(NC(=O)C(NC(=O)c3ccnn3C)C3CCc4ccccc4C3)cc2C1 (stereo partly drawn) [Example 128, N-(2-((2-((R)-4-isopropyl-2-oxoimidazolidin-1-yl)-2-(methylcarbamoyl)-2,3-dihydro-1H-inden-5-yl)amino)-2-oxo-1-(1,2,3,4-tetrahydronaphthalen-2-yl)ethyl)-1-methyl-1H-pyrazole-5-carboxamide]
IC50 ([1]; Homo sapiens, HT-29, 48 h): 277 nM
IC50 [2]: 89.8 nM

Compound: Cn1nccc1C(=O)NC(C(=O)Nc1ccc2c(c1)CC(N1C[C@@H](C(F)(F)F)NC1=O)C2)C1CCc2cc(Cl)ccc2C1 (stereo partly drawn) [Example 217, N-(1-(6-chloro-1,2,3,4-tetrahydronaphthalen-2-yl)-2-oxo-2-((2-((S)-2-oxo-4-(trifluoromethyl)imidazolidin-1-yl)-2,3-dihydro-1H-inden-5-yl)amino)ethyl)-1-methyl-1H-pyrazole-5-carboxamide]
IC50 ([1]; Homo sapiens, HT-29, 48 h): 394 nM
IC50 [2]: 62.5 nM

Compound: CNC(=O)C1(N2CC(C)NC2=O)Cc2cc(NC(=O)[C@@H](NC(=O)c3ccnn3C)C3CCCCC3)sc2C1 (stereo partly drawn) [Example 9, N-((1S)-1-cyclohexyl-2-((5-(4-methyl-2-oxoimidazolidin-1-yl)-5-(methylcarbamoyl)-5,6-dihydro-4H-cyclopenta[b]thiophen-2-yl)amino)-2-oxoethyl)-1-methyl-1H-pyrazole-5-carboxamide]
IC50 ([1]; Homo sapiens, HT-29, 48 h): > 10000 nM
IC50 [2]: 8000 nM

Compound: CNC(=O)C1(N2CC(C(C)C)NC2=O)Cc2ccc(NC(=O)[C@@H](NC(=O)c3ccnn3C)C3CCCCC3)cc2C1 (stereo partly drawn) [Example 38, N-((1S)-1-cyclohexyl-2-((2-(4-isopropyl-2-oxoimidazolidin-1-yl)-2-(methylcarbamoyl)-2,3-dihydro-1H-inden-5-yl)amino)-2-oxoethyl)-1-methyl-1H-pyrazole-5-carboxamide]
IC50 ([1]; Homo sapiens, HT-29, 48 h): 156 nM
IC50 [2]: 46 nM

Compound: Cc1nonc1C(=O)N[C@H](C(=O)Nc1ccc2c(c1)CC(C1C[C@@H](C(C)C)NC1=O)C2)C(C1CC1)C1CC1 (stereo partly drawn) [Example 211, N-((2S)-1,1-dicyclopropyl-3-((2-((5S)-5-isopropyl-2-oxopyrrolidin-3-yl)-2,3-dihydro-1H-inden-5-yl)amino)-3-oxopropan-2-yl)-4-methyl-1,2,5-oxadiazole-3-carboxamide]
IC50 ([1]; 48 hours): 3680 nM
IC50 [2]: 465 nM

Compound: Cc1nonc1C(=O)N[C@H](C(=O)Nc1ccc2c(c1)CC(C(=O)Nc1ccccc1Cl)(N1C[C@@H](C(C)C)NC1=O)C2)C(C1CC1)C1CC1 (stereo partly drawn) [Example 263, N-((2S)-1-((2-((2-chlorophenyl)carbamoyl)-2-((R)-4-isopropyl-2-oxoimidazolidin-1-yl)-2,3-dihydro-1H-inden-5-yl)amino)-3,3-dicyclopropyl-1-oxopropan-2-yl)-4-methyl-1,2,5-oxadiazole-3-carboxamide]
IC50 ([1]; Homo sapiens, HT-29, 48 h): 447 nM
IC50 [2]: 97.1 nM

Compound: CCn1nccc1C(=O)N[C@H](C(=O)Nc1ccc2c(c1)CC(C(=O)NC)(N1CC3(CC3)CNC1=O)C2)C1CCCCC1 (stereo partly drawn) [Example 154, N-((1S)-1-cyclohexyl-2-((2-(methylcarbamoyl)-2-(6-oxo-5,7-diazaspiro[2.5]octan-5-yl)-2,3-dihydro-1H-inden-5-yl)amino)-2-oxoethyl)-1-ethyl-1H-pyrazole-5-carboxamide]
IC50 ([1]; Homo sapiens, HT-29, 48 h): 71.4 nM
IC50 [2]: 28 nM

IC50 ([1]; Homo sapiens, HT-29, 48 h): 153 nM
Compound: COc1ccccc1NCC1(N2CC3(CC3)CNC2=O)Cc2ccc(NC(=O)[C@@H](NC(=O)c3ccnn3C)C3CCCCC3)cc2C1 (stereo partly drawn) [Example 173, N-((1S)-1-cyclohexyl-2-((2-(((2-methoxyphenyl)amino)methyl)-2-(6-oxo-5,7-diazaspiro[2.5]octan-5-yl)-2,3-dihydro-1H-inden-5-yl)amino)-2-oxoethyl)-1-methyl-1H-pyrazole-5-carboxamide]

Compound: Cc1nonc1C(=O)N[C@H](C(=O)Nc1ccc2c(c1)CC(N1C[C@@H](C(C)C)NC1=O)(C(C)(O)C(F)(F)F)C2)C(C1CC1)C1CC1 (stereo partly drawn) [Example 250, N-((2S)-1,1-dicyclopropyl-3-((2-((R)-4-isopropyl-2-oxoimidazolidin-1-yl)-2-(1,1,1-trifluoro-2-hydroxypropan-2-yl)-2,3-dihydro-1H-inden-5-yl)amino)-3-oxopropan-2-yl)-4-methyl-1,2,5-oxadiazole-3-carboxamide]
IC50 ([1]; 48 hours): 271 nM
IC50 ([1]; Homo sapiens, HT-29, 48 h): 190 nM
